Experimental data as given in the NIST ThermoML archive (doi:10.1021/je049913p).
Numbers after ± are expanded uncertainties.

Key:
[1] = Crystal; Adiabatic calorimetry
[2] = Molar enthalpy of transition or fusion; settings: Crystal; Adiabatic calorimetry

Question: Which Triple point temperature [1] does the source give for `[Bi]` [bismuth] here?
Answer: 544.56 ± 0.005 K

Question: And the “Molar enthalpy of transition or fusion” value [2]?
Answer: 2.655 ± 0.00406 kcal/mol
